From the SangsterLogP compilation

| SMILES | logP |
| --- | --- |
| CCCCNC(=O)C(C)NC(C)=O (centres undefined) | 0.55 |
| CN[C@H](C)C(=O)NCc1ccc(F)cc1 | 1.51 |
| CC(=O)N(C)CC(=O)NCc1ccccc1 | 0.94 |
| CC(NC(=O)OCc1ccccc1)C(=O)OCc1ccccc1 (centres undefined) | 3.84 |
| CC(=O)NC(C)C(=O)NCCC(C)C (centres undefined) | 0.88 |
| CC(C(=O)NCc1ccccc1)N(C)C(=O)OC(C)(C)C (centres undefined) | 2.94 |
| CN1CSCC1C(=O)NCc1ccccc1 (centres undefined) | 1.85 |
| CC(=O)N(C)CCC(=O)NCc1ccccc1 | 1.12 |
| CNC(C)C(=O)NCc1cccnc1 (centres undefined) | 0.05 |
| CC(=O)N1CCC[C@@H]1C(=O)NCc1ccccc1 | 1.46 |
| CNCCC(=O)NCc1ccccc1 | 1.01 |
| CC(=O)NC(CC(C)C)C(=O)NCc1ccccc1 (centres undefined) | 2.31 |
| CC(C(=O)NCc1ccccc1)N(C)C (centres undefined) | 1.73 |
| CC(=O)NC(CCCNC(=N)N[N+](=O)[O-])C(=O)NCc1ccccc1 (centres undefined) | 0.45 |
| CC(NC(=O)OCc1ccccc1)C(=O)NCc1ccccc1 (centres undefined) | 3.52 |
| CC(=O)NCCC(=O)NCc1ccccc1 | 0.76 |
| CN[C@H](C)C(=O)NCc1ccc(OC)cc1 | 1.11 |
| CNC(C)C(=O)NCc1ccco1 (centres undefined) | -0.66 |
| CC(=O)NC(C)(C)C(=O)NCc1ccccc1 | 1.32 |
| CC(=O)N(C)C(C)C(=O)NCc1ccco1 (centres undefined) | -0.55 |
| CC(=O)NCCCC(=O)NCc1ccccc1 | 1.01 |
| CC(=O)N[C@@H](Cc1c[nH]c2ccccc12)C(=O)NCc1ccccc1 | 2.17 |
| O=C(NC(O)C(=O)O)OCc1ccccc1 (centres undefined) | 1.63 |
| CCNC(C)C(=O)NCc1ccccc1 (centres undefined) | 1.71 |
| O=C(NC(CCC1CCCCC1)C(=O)OCCC1CCCCC1)OCc1ccccc1 (centres undefined) | 6.39 |
| CC(=O)NC(Cc1ccc(Cl)cc1)C(=O)NCc1ccccc1 (centres undefined) | 3.72 |
| CC(=O)NC(C)C(=O)NCC(C)C (centres undefined) | 0.56 |
| CC(=O)N(C)C(C)C(=O)NCc1ccccc1 (centres undefined) | 1.48 |
| CC(=O)N1CSCC1C(=O)NCc1ccccc1 (centres undefined) | 1.29 |
